5 compounds from US20150259344A1, “IMIDAZOLE DERIVATIVE” (DAINIPPON SUMITOMO PHARMA CO., LTD., priority 2012, published 2015) can be followed below.

One assay addresses T1, human α7 nAChR (Homo sapiens, UniProt P36544).
T1 construct: expressed in transfected cells
The assay can be described thus: Evaluation of PAM activity with human α7 nACh receptor stably expressing cells (aequorin luminescence, FDSS7000). The following applies: 10 μM test compound; ACh at EC20; ratio of RLU (Max-Min) to control wells; read-out: α7PAM (%) @10 μM. The class given is cell-based. The essentials: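 Human α7 nAChR stable cells loaded with 4 μM Viviren (final) for 4 h at room temperature in the dark. Compounds in Hanks/20 mM HEPES/0.2% BSA were added and luminescence recorded on FDSS7000. PAM activity = RLU (Max-Min) ratio of test wells to control wells.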

The next assay has as its system Slc:ddY mice. The experiment in a line: Novel object recognition test in mice (mORT), evaluation of cognitive function. The class given is in vivo. The note with it: 3 mg/kg (oral), administered prior to the 1st trial, 2nd trial 24 hours after. As to the method: Evaluation of Cognitive Function with Mice in Novel Object Recognition Test (Hereinafter. Referred to as “mORT”)
Slc:ddY mice (25 to 30 g, male, Japan SLC) can be used in the novel object recognition test wherein the interval between the 1st trial (training) and the 2nd trial (test) correlates with the memory loss for the objects used in the 1st trial, and a significant memory-loss is observed when the 2nd trial is performed 24 hours after the 1st trial. According to the test mechanism, the present compounds were administered prior to the 1st trial, and the enhancement effect on memory in the 2nd trial was evaluated.

For the next assay, the system named is Slc:Wistar rats. The assay can be described thus: Y-shaped maze test in rats (Y-maze test), scopolamine-induced cognitive impairment. The note with it: 3 mg/kg (oral), treated prior to 0.6 mg/kg scopolamine HBr s.c. Type of assay: in vivo. As to the method:
Evaluation on Improvement Against Cognitive Impairment with Rats in Y-Shaped Maze Test (Hereinafter, Referred to as “Y-Maze Test”)
In Y-maze test, 0.6 mg/kg scopolamine HBr (cat#S0929, Sigma Aldrich, Japan) can be subcutaneously administered to Slc:Wistar rats (280 to 300 g, male, Japan SLC) to cause cognitive impairment and decrease the percentage of spontaneous alternation behavior. According to the test mechanism, the present compounds were treated prior to the administration of scopolamine, and the improvement effect on cognitive impairment is evaluated.

T1 sequence (P36544 23-502): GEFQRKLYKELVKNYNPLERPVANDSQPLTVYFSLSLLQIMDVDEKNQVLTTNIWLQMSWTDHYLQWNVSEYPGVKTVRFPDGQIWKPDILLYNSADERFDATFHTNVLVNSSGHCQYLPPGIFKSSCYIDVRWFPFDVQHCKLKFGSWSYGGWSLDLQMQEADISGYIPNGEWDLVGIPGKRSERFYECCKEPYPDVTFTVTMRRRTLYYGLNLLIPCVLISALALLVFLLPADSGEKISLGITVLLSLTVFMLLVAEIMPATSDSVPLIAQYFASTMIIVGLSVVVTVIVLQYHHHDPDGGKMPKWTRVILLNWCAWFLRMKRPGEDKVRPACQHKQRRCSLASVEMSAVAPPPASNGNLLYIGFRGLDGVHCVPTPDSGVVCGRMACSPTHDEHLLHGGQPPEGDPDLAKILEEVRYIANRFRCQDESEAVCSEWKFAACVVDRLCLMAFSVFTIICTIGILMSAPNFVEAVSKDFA

`O=C(NC1CCCCC1)N1CCC(n2cnc(-c3cccc(F)c3)c2)CC1` [Example 1, N-Cyclohexyl-4-[4-(3-fluorophenyl)-1H-imidazol-1-yl]piperidine-1-carboxamide]: the activity at 10 µM on human α7 nAChR came out at 836%. For the same compound, the “enhancement effect on memory in the 2nd trial (mORT)” value (shortened to “enhancement effect on memory”) in the assay on Slc:ddY mice is on record as “significant memory enhancing effect”. Further, the “improvement effect on cognitive impairment (Y-maze, spontaneous alternation behavior)” value in the assay with Slc:Wistar rats is listed as “significant improvement effect on memory disorder”.
With `CC(C)(F)C(=O)N[C@H]1CC[C@@H](n2cnc(-c3ccc(F)cc3)c2Cl)CC1` [Example 183, N-{cis-4-[5-chloro-4-(4-fluorophenyl)-1H-imidazol-1-yl]cyclohexyl}-2-fluoro-2-methylpropanamide], at human α7 nAChR, the activity at 10 µM worked out at 791%. The “enhancement effect on memory” value with Slc:ddY mice is listed as “significant memory enhancing effect”. Moreover, in the assay with Slc:Wistar rats, the “improvement effect on cognitive impairment (Y-maze, spontaneous alternation behavior)” value is listed as “significant improvement effect on memory disorder”.
Regarding `CC(C)(F)C(=O)N[C@H]1CC[C@@H](n2cnc(-c3ccc(Cl)cc3)c2)CC1` [Example 280, N-{cis-4-[4-(4-chlorophenyl)-1H-imidazol-1-yl]cyclohexyl}-2-fluoro-2-methylpropanamide], the activity at 10 µM on human α7 nAChR came out at 787%. For the same compound, the “enhancement effect on memory” value with Slc:ddY mice is recorded as “significant memory enhancing effect”.
For the compound `O=C(NC1CCOCC1)[C@H]1CC[C@@H](n2cnc(-c3ccc(F)c(F)c3)c2Cl)CC1` [Example 370, cis-4-[5-chloro-4-(3,4-difluorophenyl)-1H-imidazol-1-yl]-(tetrahydro-2H-pyran-4-yl)cyclohexanecarboxamide], the “enhancement effect on memory” value in the assay on Slc:ddY mice is reported as “significant memory enhancing effect”.
The same measure, in the same setting: in the case of `O=C(C1CCC(F)(F)CC1)N1[C@@H]2CC[C@H]1C[C@H](n1cnc(-c3ccc(F)cc3)c1Cl)C2` [Example 452, {(3-exo)-3-[5-chloro-4-(4-fluorophenyl)-1H-imidazol-1-yl]-8-azabicyclo[3.2.1]oct-8-yl}(4,4-difluorocyclohexyl)methanone] it was “significant memory enhancing effect”.
